ChEMBL document CHEMBL4651402, “Screening of ~5500 FDA-approved drugs and clinical candidates for anti-SARS-CoV-2 activity” (2021)

Tested on: SARS-CoV-2
Assay: microbe, parasite or virus in culture
Conditions: Severe acute respiratory syndrome coronavirus 2, Vero C1008, 48 h

SMILES | IC50 [µM] | IC50 (read-out: pIC50 (converted)) [µM]
CN1C2CCC1CC(OC(c1ccccc1)c1ccccc1)C2 (stereo unspecified) | > 20 | > 20
CCCCCCCCCCCCOS(=O)(=O)O | > 20 | > 20
CN(C)CC(=O)O | > 20 | > 20
O=c1c(-c2ccc(O)cc2)coc2c(C3O[C@H](CO)[C@@H](O)[C@H](O)[C@H]3O)c(O)ccc12 (stereo partly specified) | > 20 | > 20
CC(C)c1ccc2c(c1)CCC1C(C)(C(N)=O)CCCC21C (stereo unspecified) | > 20 | > 20
CCc1ccc(OCc2ccccc2C(=O)Nc2ccc3nc(C)cc(N)c3c2)cc1 | > 20 | > 20
CC[C@]1(c2ccccc2)NC(=O)N(C)C1=O | > 20 | > 20
CCCc1nc(C)c2c(=O)nc(-c3cc(S(=O)(=O)N4CCN(CC)CC4)ccc3OCC)[nH]n12 | > 20 | > 20
CC12C=CC(=O)C=C1CCC1C2C(=O)CC2(C)C1CC[C@]2(O)C(=O)CO (stereo partly specified) | > 20 | > 20
CCOC(=O)[C@H](CCc1ccccc1)N[C@@H](C)C(=O)N1Cc2ccccc2C[C@H]1C(=O)O | > 20 | > 20
NC(C(=O)O)C(O)c1ccc(O)c(O)c1 (stereo unspecified) | > 20 | > 20
CCC12CCCN3CCc4c(n(c5ccccc45)C(O)(C(=O)OC)C1)C32 (stereo unspecified) | > 20 | > 20
CCN1CCN(C(=O)NC(C(=O)NC2C(=O)N3C2SC(C)(C)C3C(=O)O)c2ccccc2)C(=O)C1=O (stereo unspecified) | > 20 | > 20
COC(=O)C(N)Cc1ccc(O)c(O)c1 (stereo unspecified) | > 20 | > 20
CC(C)C[C@H]1C(=O)N2CCC[C@H]2[C@]2(O)O[C@](NC(=O)[C@@H]3C=C4c5cccc6[nH]c(Br)c(c56)CC4N(C)C3)(C(C)C)C(=O)N12 (stereo partly specified) | > 20 | > 20
COP(=O)(c1cc(C)cc(/C=C/C#N)c1)c1c(C(N)=O)[nH]c2ccc(Cl)cc12 (stereo unspecified) | > 20 | > 20
CC(=O)C1(O)CCC2C3CC(C)C4=CC(=O)C=CC4(C)C3(F)C(O)CC21C (stereo unspecified) | > 20 | > 20
CC(C)CCCCCCCCCCCCCCC(=O)O | > 20 | > 20
COc1ccc(Cl)cc1NC(=O)Cc1ccc(S(=O)(=O)Nc2ncc(CC(C)C)cn2)cc1 | > 20 | > 20
CC1C(=O)OC2CCN3CC=C(COC(=O)C(C)(O)C1(C)O)C23 (stereo unspecified) | > 20 | > 20
NC(=O)c1csc(C2OC(CO)C(O)C2O)n1 (stereo unspecified) | > 20 | > 20
O=c1[nH]c(=O)n(C2CC(O)C(CO)O2)cc1Br (stereo unspecified) | > 20 | > 20
Cc1ncc[nH]1 | > 20 | > 20

SMILES | IC50 [µM] | IC50 (read-out: pIC50 (converted)) [µM]
O=C1CC(c2ccc(O)c(O)c2)Oc2cc(O)cc(O)c21 (stereo unspecified) | > 20 | > 20
CC12CCC3C4CCC(=O)C=C4CCC3C1CCC2=O (stereo unspecified) | > 20 | > 20
CC(=O)C1CCC2C3CCC4=CC(=O)CCC4C3CCC12C (stereo unspecified) | > 20 | > 20
CC[N+](C)(CC)CCC[n+]1c(-c2ccccc2)c2cc(N)ccc2c2ccc(N)cc21 | > 20 | > 20
COc1ccc2[nH]c3c(c2c1)CCN=C3C | > 20 | > 20
Cc1c(NC(=O)C(C)N(C)C)c(=O)n(-c2ccccc2)n1C (stereo unspecified) | > 20 | > 20
O[C@H](CNC[C@@H](O)[C@H]1CCc2cc(F)ccc2O1)[C@@H]1CCc2cc(F)ccc2O1 | > 20 | > 20
COc1cc2c(c(OC)c1OC)-c1ccc(O)c(=O)cc1C(N)CC2 (stereo unspecified) | > 20 | > 20
CCOc1ccccc1O[C@H](c1ccccc1)[C@H]1CNCCO1 | > 20 | > 20
COC(=O)C(N)CCCNC(=N)N[N+](=O)[O-] (stereo unspecified) | > 20 | > 20
O=C(O)CC(S)C(=O)O (stereo unspecified) | > 20 | > 20
CC(C)(O)c1ccn2c(-c3ccc(F)c(-c4ccc(F)cc4C#N)c3)cnc2c1F | > 20 | > 20
O=C(OCc1ccccc1)c1ccc(O)cc1 | > 20 | > 20
C[C@@H]1CC(=O)NN=C1c1ccc2c(c1)OCC(=O)N2 | > 20 | > 20
COc1ccc(CCNCCC(=O)N2CCCSc3ccccc32)cc1OC | > 20 | > 20
C[C@]1(O)CCC2C3CC[C@H]4CC(=O)/C(=C/O)C[C@]4(C)C3CC[C@@]21C (stereo partly specified) | > 20 | > 20
CCOC(=O)C(CCc1ccccc1)NC(C)C(=O)N(CC(=O)O)C1Cc2ccccc2C1 (stereo unspecified) | > 20 | > 20
OC[C@H]1O[C@@](O)(CO)[C@@H](O)[C@@H]1O | > 20 | > 20
C[C@H]1CN([C@H]2CC[C@](C#N)(c3ccc(F)cc3)CC2)CC[C@]1(C(=O)O)c1ccccc1 | > 20 | > 20
C=C[C@](C)(O)CC[C@H]1C(=C)C[C@H](OC(C)=O)[C@H]2C(C)(C)CCC[C@]12C | > 20 | > 20
CNC(=O)[C@H]1O[C@@H](n2cnc3c(NCc4cccc(I)c4)ncnc32)[C@@H](O)[C@H]1O | > 20 | > 20
CCC(CC)[C@@H](c1ccc(Nc2nc3ccccc3s2)cc1)n1cncn1 | > 20 | > 20
[O-][n+]1cccc(C(Cl)=NOC[C@H](O)CN2CCCCC2)c1 | > 20 | > 20

SMILES | IC50 [µM] | IC50 (read-out: pIC50 (converted)) [µM]
C=C[C@@]1(C)CC(=O)[C@@]2(O)[C@](C)(O1)[C@@H](OC(C)=O)[C@@H](OC(=O)CCN(C)C)C1C(C)(C)CC[C@H](O)[C@@]12C (stereo partly specified) | > 20 | > 20
CC(=O)OC1C=C2CCC3C(CCC4(C)C(OC(C)=O)CCC34)C2(C)CC1 (stereo unspecified) | > 20 | > 20
Nc1nc(Cl)nc2c1ncn2[C@@H]1C[C@H](O)[C@@H](CO)O1 | > 20 | > 20
CC(C)C1NC(=O)[C@@H](C(C)C)OC(=O)[C@H](C(C)C)NC(=O)[C@H](C)OC(=O)[C@@H](C(C)C)NC(=O)[C@@H](C(C)C)OC(=O)[C@H](C(C)C)NC(=O)[C@H](C)OC(=O)[C@@H](C(C)C)NC(=O)[C@@H](C(C)C)OC(=O)[C@H](C(C)C)NC(=O)[C@H](C)OC1=O (stereo partly specified) | > 20 | > 20
NC(C=O)C(O)C(O)C(O)CO (stereo unspecified) | > 20 | > 20
CCCCCCN1CCN(/C(=N/CC(C)C)c2ccccc2)CC1 | > 20 | > 20
CC(=O)N[C@@H](CC(N)=O)C(=O)O | > 20 | > 20
COc1ccc2c3c1O[C@H]1[C@@H](O)C=C[C@H]4[C@@H](C2)[N@+](C)([O-])CC[C@@]341 | > 20 | > 20
CN(N=O)C(=O)N[C@@H](C=O)[C@@H](O)[C@H](O)[C@H](O)CO.CN(N=O)C(=O)N[C@H]1C(O)O[C@H](CO)[C@@H](O)[C@@H]1O | > 20 | > 20
COc1cccc(N2CCN(C3=Nc4c(F)cccc4C(CC(=O)O)N3c3cc(C(F)(F)F)ccc3OC)CC2)c1 (stereo unspecified) | > 20 | > 20
CCCc1ccc(C(=O)O)nc1 | > 20 | > 20
CC(=O)OC1CCC2C3CC[C@H]4CC(=O)C(C)=CC4(C)C3CCC12C (stereo partly specified) | > 20 | > 20
C#C[C@]1(O)CC[C@H]2[C@@H]3CCC4=CC(=NO)CC[C@@H]4[C@H]3CC[C@@]21CC | > 20 | > 20
C[C@@H]1CC[C@@]2(OC1)OC1CC3C4CC[C@H]5CC(O)CC[C@]5(C)C4CC[C@]3(C)C1[C@@H]2C (stereo partly specified) | > 20 | > 20
CC12CCC3C4CCC(O)CC4=CCC3C1CCC2O (stereo unspecified) | > 20 | > 20
CC(=O)OCC(=O)C1CCC2C3CC[C@H]4CC(O)CCC4(C)C3C(=O)CC12C (stereo partly specified) | > 20 | > 20
C1CN1c1nc(N2CC2)nc(N2CC2)n1 | > 20 | > 20
CN1C2CCC1CC(OC1c3ccccc3CCc3ccccc31)C2 (stereo unspecified) | > 20 | > 20
CN(C)CCOCC(=O)NC12CC3CC(CC(C3)C1)C2 | > 20 | > 20
O=C(C1CCCCC1)N1CC(=O)N2CCCc3ccccc3C2C1 (stereo unspecified) | > 20 | > 20
OCC1OC(Oc2ccc(O)cc2)C(O)C(O)C1O (stereo unspecified) | > 20 | > 20
Oc1c(Cc2ccccc2)ccc2ccccc12 | > 20 | > 20
